# According to article PMC8719521, “Spectral, Anti-Inflammatory, Anti-Pyretic, Leishmanicidal, and Molecular Docking Studies, Against Selected Protein Targets, of a New Bisbenzylisoquinoline Alkaloid” (Frontiers in Chemistry, 2021):
# Columns and labels:
# [1] = system: promastigotes of Leishmania tropica (clinical field isolate KWH23); assay: Anti-leishmanial assay on promastigotes; format: cell-based; conditions: for anti-leishmanial properties: at all four tested concentrations, 48 h
# Protocol: The initial culture was raised in the 5 ml M-199 medium supplemented with 10% heat-inactivated fetal bovine serum (HI-FBS), 100 μg/ ml penicillin, 100 μg/ ml streptomycin, 50 μg/ ml kanamycin, and 5 μg/ ml of hemin in a 15-ml culture flask. The culture flask was kept in an incubator at 26°C, and the medium was changed every third day. The cultures were given enough time (10–14 days) to fully develop and promastigotes to reach the metacyclic stage. The culture was then sub-passaged by pouring the contents of the flask containing the promastigotes into a centrifuge tube. The tubes were then spun in a Sigma centrifuge at 2000 rpm for 12 min. After spinning, the medium was carefully poured off leaving the pellet only. This pellet was re-suspended in the 2–4 ml growth medium, and new cultures were established. The primary culture was used for sensitivity assays, and additional cultures were cryopreserved in liquid nitrogen at −196°C for future use.
# The culture of L. tropica clinical field isolate KWH23 was established from already cryopreserved collection in the Department of Zoology, University of Peshawar. The initial culture was raised in the 5 ml M-199 medium supplemented with 10% heat-inactivated fetal bovine serum (HI-FBS), 100 μg/ ml penicillin, 100 μg/ ml streptomycin, 50 μg/ ml kanamycin, and 5 μg/ ml of hemin in a 15-ml culture flask. Two experiments were run at a time under the same conditions in 96-well flat-bottom plates. The promastigotes were counted in culture suspension by using the improved Neubauer hemocytometer. From the viable promastigotes bulk culture (4 × 10^6/ ml), 1 × 10^5 promastigotes/well in the 200 µL fresh M-199 medium were seeded in 96-well plates. Four different concentrations for each compound were applied, and one row of 12 wells was kept as a control with the growth medium only. The 96-well plates were incubated at 26°C for 48 h. After 48 h, the number of promastigotes in each well was counted microscopically using the improved Neubauer hemocytometer.
# [2] = system: carrageenan-induced paw edema; assay: Carrageenan-induced paw edema studies; format: in vivo, Albino rats; conditions: for percent inhibition of carrageenan-induced paw edema: right after the carrageenan injection, p < 0.05
# Protocol: (§1) Albino rats (180–200 g) of either sex were used in all experiments. The animals were kept under standard laboratory conditions (25 °C and light/dark cycles, i.e., 12/12 h) and were fed with standard food and water ad libitum.
# Albino rats of either sex (180–200 g) were used to assess anti-inflammatory activity. The animals were randomly divided into five groups with each group having six albino rats (n = 6). Pedal inflammations in albino rats of either sex were produced according to the method described by Winter et al. (1962). Group 1 was treated with normal saline (5 ml/ kg) and group 2 was treated with oxyphenylbutazone (10 mg/ kg, i.p.), while groups 3–5 were treated with compounds 1–5 (10 mg/ kg and 20 mg/ kg, i.p.). After 30 min, 0.05 ml 1% carrageenan sodium salt (BDH) was subcutaneously injected into the plantar aponeurosis tissue of the right hind paw of each rat. The inflammation was measured using a plethysmometer (Apelex, France) immediately after +3 h of carrageenan injection. The anti-inflammatory activity was calculated using the following formula: 100(1−a−x/b−y), where “b” is the mean paw volume of control rats after carrageenan injection and “y” before the injection; whereas “x” is the mean paw volume of treated rats before injection and “a” is the mean paw volume after carrageenan injection.
# yeast-induced pyrexia = assay: Anti-pyretic studies, brewer's yeast-induced pyrexia; format: in vivo, Albino rats; conditions: for activity against yeast-induced hyperthermia: 10 and 20 mg/kg s.c., 30, 60, and 120 min
# Protocol: as §1
# Albino rats of either sex weighing 180–200 g were used for anti-pyretic studies. The animals were divided into five groups with each group having six albino rats (n = 6). All the animals were given free access to food and water. Basal rectal temperature was measured using a digital clinical thermometer before injecting the yeast. Hyperthermia was induced in rats by sub-cutaneous (s.c.) injection of 20% aqueous suspension of brewer’s yeast (20 ml/ kg) in the back below the nape of the neck ([Loux et al., 1972]). Group 1 was treated with normal saline as a control, and group 2 was treated with indomethacin (10 mg/kg, s. c) as the standard drug, while the remaining groups 3–5 were treated with compound 1–5 (10 mg/ kg and 20 mg/ kg, s. c). After 24 h from the yeast injection, the rise in the rectal temperature was recorded at regular intervals of 30, 60, and 120 min after drug administration.
Compound,inhibition of the promastigotes of Leishmania tropica ([1]; 48 h incubation),anti-leishmanial properties [1],percent inhibition of carrageenan-induced paw edema ([2]; 10 mg/kg of chondrofolinol),percent inhibition of carrageenan-induced paw edema ([2]; 20 mg/kg of chondrofolinol),paw volume in carrageenan-induced paw edema ([2]; 10 and 20 mg/kg of body weight),rectal temperature in yeast-induced pyrexia (yeast-induced pyrexia; 10 and 20 mg/kg of body weight),activity against yeast-induced hyperthermia (yeast-induced pyrexia),anti-pyretic potential (yeast-induced pyrexia; at both concentrations (10 and 20 mg/kg))
"COc1cc2c3cc1Oc1c(O)ccc(c1O)CC1c4c(cc(OC)c(OC)c4Oc4ccc(cc4)CC3N(C)CC2)CCN1C (centres unmarked) [Compound 1, chondrofolinol]",~100%,strong anti-leishmanial properties,32.12%,53.34%,significantly reduced,significantly reduced,significantly active,milder anti-pyretic potential
"COc1ccc2c(c1OC)C(C(Cl)(Cl)Cl)N1CCc3cc4c(cc3C1=C2)OCO4 (centres unmarked) [Compound 5, 8-trichloromethyldihydroberberine]",,strong anti-leishmanial properties,,,,,significantly active,
"COc1ccc2cc3[n+](cc2c1OC)CCc1cc2c(cc1-3)OCO2 [Compound 2, berberine]",,strong anti-leishmanial properties,,,,,significantly active,
"COc1cc2c(cc1OC)-c1cc3ccc(OC)c(OC)c3c[n+]1CC2 [Compound 4, palmatine]",,strong anti-leishmanial properties,,,,,significantly active,
